Results taken from ChEMBL document CHEMBL5375991, “Bioorthogonal Bond Cleavage Chemistry for On-demand Prodrug Activation: Opportunities and Challenges” (J Med Chem, 2023).

Columns and labels:
[1] = Stability in human plasma measured after 4 hrs; type: ADME, cell-free; settings: read-out: Stability
[2] = Stability of compound in 3% DMSO/PBS measured after 24 hrs relative to control; type: physicochemical; settings: read-out: Stability

remaining at 4 h [1] [%]	remaining at 24 h [2] [%]	Structure (SMILES)
77	–	CCC[N+]1=C(/C=C/C2=C3Oc4cc(NC(=O)O[C@@H]5/C=C/CCCCC5)ccc4C=C3CCC2)C(C)(C)c2ccccc21
–	47.6	O=C(O)c1ccc(-c2[s+]c(-c3ccc(N(c4ccccc4)c4ccccc4)cc3)sc2[O-])cc1
